Values belong to the molecule of their own block, whether it stands above or below them. Ends that are not written are not given here.
How the values were obtained:
[1] = Circular dichroism, α-helical content; assay type: physicochemical; settings: CD, 50 mM potassium phosphate pH 7, 20° C.
Protocol: Circular dichroism (CD) spectra were obtained on a Jasco J-710 spectropolarimeter at 20° C. using the following standard measurement parameters: wavelength, 190-260 nm; step resolution, 0.5 nm; speed, 20 nm/sec; accumulations, 10; response, 1 sec; band width, 1 nm; path length, 0.1 cm. Stock solutions of peptide were dissolved in deionized water and concentrations determined by amino acid analysis. Samples were then diluted in 50 mM potassium phosphate pH 7 to a calculated final concentration of 50 μM. The CD spectrum of each sample was measured in triplicate and a background spectrum of diluent alone was subtracted. For comparison, the subtracted CD spectra were normalized to 35 μM based on repeat peptide concentration determination by amino acid analysis of the diluted peptide solutions. The α-helical content of each peptide was calculated by dividing the mean residue ellipticity [q]222obs by the reported [q]222obs for a model helical decapeptide (Yang et al., 1986).

[2] = molecular target: T1, GST-BCL-2 (Homo sapiens, UniProt P10415); assay: BH3 peptide displacement from GST-BCL-2 by fluorescence polarization; assay type: binding; settings: for IC50: read-out: IC50 (nM), BID Displacement
T1 construct: a GST-BCL-2 fusion protein lacking the C-terminal transmembrane domain was utilized; made in house; host or cells: E. coli BL21 DE3
Description: (§1) To determine Kd for peptide binding to BCL-2, a GST-BCL-2 fusion protein lacking the C-terminal transmembrane domain was utilized. Peptides were synthesized with a fluorescein amino-terminus using an AHA linker. […] An increase in fluorescence polarization measured on a Perkin-Elmer LS 50B luminescence spectrophotometer was quantitated to calculate binding. A non-linear fit to a sigmoidal dose-response curve utilized the program Origin 6.0 to determine Kd. […] Data were fitted to a sigmoidal curve as above, and IC50 determined.
(§2) GST-BCL-2δC21 fusion proteins were induced in BL21 DE3 by 0.1 mM IPTG. The bacterial pellets were resuspended in lysis buffer (1 mg/ml lysozyme/1% Triton X-100/0.1 mg/ml PMSF/2 μg/ml aprotinin/2 μg/ml leupeptine/1 μg/ml pepstatin A in PBS) and sonicated. After centrifugation at 20,000×g for 20 min, the supernatant was applied to glutathione-agarose beads (Sigma). The beads were washed with PBS and treated with 50 mM glutathione/50 mM TrisHCl, pH8.0 to elute protein. Eluate was dialyzed against binding buffer and concentrated using Amicon centrifugal concentrating devices.

[3] = molecular target: T1, GST-BCL-2; assay: Fluorescence polarization binding of fluoresceinated BH3 peptides to GST-BCL-2; settings: for Kd: 25 nM fluoresceinated peptide, GST-BCL-2 titration, 37° C., read-out: Kd (nM), BCL-2 Binding
Description: as §1, §2

[4] = molecular target: T2, BAK (Mus musculus, UniProt O08734); assay: BAK oligomerization, BMH cross-linking and immunoblot; assay type: biochemical; settings: 100 μM peptide, cross-linker BMH
T2 construct: capable of inducing an allosteric change in mitochondrial-resident BAK or BAX; from tissue
T2 sequence (O08734 1-209): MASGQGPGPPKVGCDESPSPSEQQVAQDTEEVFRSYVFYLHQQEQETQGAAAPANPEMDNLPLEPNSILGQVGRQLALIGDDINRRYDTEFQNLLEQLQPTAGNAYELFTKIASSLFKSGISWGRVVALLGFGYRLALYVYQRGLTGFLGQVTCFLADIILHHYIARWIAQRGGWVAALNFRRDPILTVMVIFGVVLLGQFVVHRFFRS
Protocol: (§3) 1,6-Bismaleimidohexane was obtained from Pierce (#22330). A 10 mM stock solution in DMSO was added to treated mitochondrial suspensions at a 1:11 dilution. Cross-linking took place for 30 minutes at room temperature, followed by centrifugation to pellet mitochondria. Pellets were dissolved in NuPAGE loading buffer (Invitrogen).
(§4) Antibodies used for immunoblot analysis included anti-cytochrome c (75981A, Pharmingen), anti-BAK (Upstate Biotechnology), and anti-BAX (N-20, Santa Cruz). Antibody detection was accomplished using enhanced chemiluminescence (Western Lightning, Perkin-Elmer).

[5] = tested on: mitochondria; assay: Cytochrome c release from isolated mitochondria (ELISA); assay type: biochemical, mouse; settings: for cytochrome c release by peptide or protein alone: BIDBH3 at 10 μM, other concentrations not stated
Protocol: (§5) Mouse liver mitochondria were isolated from age-matched wt or Bak −/− mice. Livers were diced, subjected to Dounce rotary Teflon pestle disruption, then homogenized using a Kinematica Polytron homognizer. Following suspension in isolation buffer (250 mM sucrose, 10 mM Tris-HCl pH 7.4, 0.1 mM EGTA), mitochondria were isolated by differential centrifugation steps, followed by two washes in isolation buffer. Mitochondria from FL5.12 cells were isolated by cell disruption followed by differential centrifugation and washing as above. Cell disruption was performed either by a Kinematika Polytron homogenizer or by a combination of Dounce homogenization followed by 6-10 expulsions through a 27 gauge needle.
(§6) Mitochondria at a protein concentration of 0.5 mg/ml were treated at room temperature in experimental buffer (125 mM KCl, 10 mM Tris-MOPS pH 7.4, 5 mM glutamate, 2.5 mM malate, 1 mM KPO4, 10 µM EGTA-Tris pH 7.4). Percent release was quantitated using a colorimetric ELISA (MCTC0, R&D Systems). In all experiments, treatments with DMSO were used as a control for solvent activity.

[6] = molecular target: T3, BAX (Mus musculus, UniProt Q07813); assay: BAX oligomerization in mitochondria from FL5.12 cells, BMH cross-linking; assay type: biochemical; settings: 100 μM peptide
T3 construct: mitochondria isolated from cultured FL5.12 cells, which contain both BAX and BAK; endogenous in cells; host or cells: mitochondria isolated from FL5.12 cells
Protocol: as §3, §4

[7] = tested on: BCL-2 overexpressing mitochondria; assay: Cytochrome c release from BCL-2 overexpressing FL5.12 mitochondria; assay type: biochemical; settings: for cytochrome c release from mitochondria with overexpressed BCL-2, agent alone: 10 μM BIDBH3, 1 μM BIMBH3, 30 nM myrBID; for capacity to overcome BCL-2 protection: with subliminal myrBID (30 nM)
Protocol: as §5, §6

T1 sequence (P10415 1-218 limits assumed): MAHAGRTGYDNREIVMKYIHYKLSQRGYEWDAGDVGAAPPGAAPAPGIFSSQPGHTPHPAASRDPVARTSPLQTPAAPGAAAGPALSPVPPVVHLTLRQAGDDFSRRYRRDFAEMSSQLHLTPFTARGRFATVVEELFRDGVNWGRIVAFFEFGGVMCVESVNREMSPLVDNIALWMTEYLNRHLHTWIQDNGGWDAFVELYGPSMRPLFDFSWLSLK
T3 sequence (Q07813 whole entry): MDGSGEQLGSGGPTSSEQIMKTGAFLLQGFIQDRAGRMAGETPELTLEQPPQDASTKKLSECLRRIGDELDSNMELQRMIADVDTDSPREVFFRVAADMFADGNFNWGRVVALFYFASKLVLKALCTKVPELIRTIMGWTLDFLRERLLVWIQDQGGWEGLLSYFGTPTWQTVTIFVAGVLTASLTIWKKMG

% Helicity (222 nm) [1]: 5.1%
binding to BCL-2 [3]: did not bind detectably
Molecule: CC[C@H](C)[C@H](NC(=O)[C@H](CCCCN)NC(=O)[C@H](CCCNC(=N)N)NC(=O)[C@H](CC(C)C)NC(=O)[C@H](CCC(N)=O)NC(=O)[C@H](C)NC(=O)[C@H](C)NC(=O)[C@H](Cc1ccccc1)NC(=O)[C@H](CCC(=O)O)NC(=O)[C@@H]1CCCN1C(=O)[C@@H]1CCCN1C(=O)[C@H](CC(C)C)NC(=O)[C@H](CCC(=O)O)NC(=O)[C@H](C)N)C(=O)NCC(=O)N[C@@H](CC(=O)O)C(=O)N[C@@H](CCCCN)C(=O)N[C@H](C(=O)N[C@@H](Cc1ccc(O)cc1)C(=O)N[C@@H](CS)C(=O)O)C(C)C [NOXAABH3]
displacement of BIDBH3 from BCL-2 [2]: did not bind detectably to BCL-2 or displace BIDBH3 from BCL-2

IC50 [2]: > 30000 nM
Kd [3]: > 1000 nM
Molecule: VIPMAAVKQALREAGDEFEL [BCLXBH3]

% Helicity (222 nm) [1]: 8.5%
IC50 [2]: 4920 nM
Kd [3]: 485 nM
Molecule: CC[C@H](C)[C@H](NC(=O)[C@H](CS)NC(=O)[C@H](C)NC(=O)[C@H](CC(C)C)NC(=O)[C@H](CCCNC(=N)N)NC(=O)[C@H](CC(C)C)NC(=O)[C@H](C)NC(=O)[C@H](CC(C)C)NC(=O)[C@H](C)NC(=O)[C@H](CC(=O)O)NC(=O)[C@H](CO)NC(=O)CNC(=O)[C@H](CCC(=O)O)NC(=O)[C@@H](N)CCSC)C(=O)NCC(=O)N[C@@H](CC(=O)O)C(=O)N[C@@H](CCC(=O)O)C(=O)N[C@@H](CCSC)C(=O)N[C@@H](CC(=O)O)C(=O)N[C@H](C(=O)O)C(C)C [BIKBH3]
displacement of BIDBH3 from BCL-2 [2]: demonstrate the ability to displace BIDBH3
restoration of cytochrome c release by myrBID ([7]; 100 μM BIKBH3): restore near-total cytochrome c release
capacity to overcome BCL-2 protection [7]: significant, but lesser, potency

The next lines start with the molecule.

Molecule: CC[C@H](C)[C@H](NC(=O)[C@H](CC(N)=O)NC(=O)[C@H](CCCNC(=N)N)NC(=O)[C@@H](NC(=O)[C@@H](NC(=O)[C@H](CC(=O)O)NC(=O)[C@@H](N)CCC(=O)O)[C@@H](C)CC)[C@@H](C)CC)C(=O)N[C@@H](C)C(=O)N[C@@H](CCCNC(=N)N)C(=O)N[C@@H](Cc1c[nH]cn1)C(=O)N[C@@H](CC(C)C)C(=O)N[C@@H](C)C(=O)N[C@@H](CCC(N)=O)C(=O)N[C@H](C(=O)NCC(=O)N[C@@H](CC(=O)O)C(=O)N[C@@H](CO)C(=O)N[C@@H](CCSC)C(=O)N[C@@H](CC(=O)O)C(=O)N[C@@H](CCCNC(=N)N)C(=O)O)C(C)C [BIDBH3]
BAK oligomerization [4]: induces BAK oligomerization
% Helicity (222 nm) [1]: 19.5%
displacement of BADBH3 from BCL-2 [2]: does not effectively displace BADBH3 from BCL-2
concentration required for near total release of cytochrome c [5]: 10 µM
cytochrome c release, Bak +/+ vs. −/− mitochondria ([5]; 100 μM peptide, liver mitochondria): BAK is required for the release of cytochrome c
cytochrome c release by peptide or protein alone [5]: capable of initiating cytochrome c release
oligomerization of BAX [6]: could also induce oligomerization of BAX
cytochrome c release from mitochondria with overexpressed BCL-2, agent alone [7]: failing to release cytochrome c

Molecule: CC[C@H](C)[C@H](NC(=O)[C@H](CCCNC(=N)N)NC(=O)[C@H](CCCNC(=N)N)NC(=O)[C@H](CC(C)C)NC(=O)[C@H](CCC(N)=O)NC(=O)[C@H](C)NC(=O)[C@H](CS)NC(=O)[C@H](CCC(=O)O)NC(=O)[C@H](CC(=O)O)NC(=O)[C@H](CCCCN)NC(=O)[C@H](CC(C)C)NC(=O)[C@H](CC(=O)O)NC(=O)[C@H](C)NC(=O)[C@@H]1CCCN1)C(=O)NCC(=O)N[C@@H](CC(=O)O)C(=O)N[C@@H](CCCCN)C(=O)N[C@H](C(=O)N[C@@H](CC(N)=O)C(=O)N[C@@H](CC(C)C)C(=O)O)C(C)C [NOXABBH3]
% Helicity (222 nm) [1]: 11.6%
displacement of BIDBH3 from BCL-2 [2]: did not bind detectably to BCL-2 or displace BIDBH3 from BCL-2
binding to BCL-2 [3]: did not bind detectably

Molecule: CSCC[C@H](NC(=O)[C@H](CCCNC(=N)N)NC(=O)[C@H](CCCNC(=N)N)NC(=O)[C@H](CC(C)C)NC(=O)[C@H](CCC(=O)O)NC(=O)[C@H](CCCNC(=N)N)NC(=O)CNC(=O)[C@H](Cc1ccc(O)cc1)NC(=O)[C@H](CCCNC(=N)N)NC(=O)[C@H](CCC(N)=O)NC(=O)[C@H](C)NC(=O)[C@H](C)NC(=O)[C@H](Cc1c[nH]c2ccccc12)NC(=O)[C@H](CC(C)C)NC(=O)[C@@H](N)CC(N)=O)C(=O)N[C@@H](CO)C(=O)N[C@@H](CC(=O)O)C(=O)N[C@@H](CCC(=O)O)C(=O)N[C@@H](Cc1ccccc1)C(=O)N[C@H](C(=O)N[C@@H](CC(=O)O)C(=O)N[C@@H](CO)C(=O)N[C@@H](Cc1ccccc1)C(=O)N[C@@H](CCCCN)C(=O)N[C@@H](CCCCN)C(=O)O)C(C)C [BADBH3]
BAK oligomerization [4]: unable to induce BAK oligomerization
% Helicity (222 nm) [1]: 23.9%
displacement of BIDBH3 from BCL-2 [2]: can efficiently displace pre-bound BIDBH3 peptide from BCL-2
cytochrome c release by peptide or protein alone [5]: inactive in this assay
cytochrome c release by peptide alone ([5]; even at 100 μM): cannot activate BAK or release cytochrome c
oligomerization of BAX [6]: not
affinity for BCL-2 relative to BIDBH3 peptide [3]: approximately 5 fold
restoration of cytochrome c release to BIDBH3 and BIMBH3 ([7]; 100 μM BADBH3): to levels observed for wt mitochondria
restoration of sensitivity to myrBID ([7]; 200 μM BADBH3): markedly restores their sensitivity to even 1 nM myrBID
lowest concentration with measurable activity in inhibiting BCL-2 and enabling cytochrome c release by myrBID ([7]; FL5.12-BCL-2 mitochondria): 1 µM
capacity to overcome BCL-2 protection [7]: most prominently demonstrates the capacity to overcome BCL-2 protection

B1: myrBID: recombinant p7/myrp15, myristoylated BID complex (protein, UniProt P55957 1-195, looked up)
BH3-interacting domain death …: MDCEVNNGSSLRDECITNLLVFGFLQSCSDNSFRRELDALGHELPVLAPQWEGYDELQTDGNRSSHSRLGRIEADSESQEDIIRNIARHLAQVGDSMDRSIPPGLVNGLALQLRNTSRSEEDRNRDLATALEQLLQAYPRDMEKEKTMLVLALLLAKKVASHTPSLLRDVFHTTVNFINQNLRTYVRSLARNGMD
modifications: myristoylated; p7/p15 cleaved complex
concentration required for near total release of cytochrome c [5]: 0.01 µM
cytochrome c release by peptide or protein alone [5]: capable of initiating cytochrome c release
cytochrome c release from mitochondria with overexpressed BCL-2, agent alone [7]: failing to release cytochrome c

From patent publication US9902759B2, “BH3 peptides and methods of use thereof” (Dana-Farber Cancer Institute, Inc., priority 2002, dated 2018)
